This passage reports inhibition results from PMC6934184, “Selective DNA-PKcs inhibition extends the therapeutic index of localized radiotherapy and chemotherapy” (The Journal of Clinical Investigation, 2019).

Usually inhibition stands for the relative decrease from the control value, in per cent.

Molecules are shown by their SMILES.

The experiment deals with T1, ABL2 (Arg) (Homo sapiens, UniProt P42684).
T1 construct: purchased Thermo Fisher Scientific (Life Technologies) SelectScreen
The experiment is described as follows: SelectScreen Z'LYTE. In kind it is biochemical. The gist of the method:
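NU5455 was profiled across the SelectScreen Broad panel of kinase activity and binding assays. Z'LYTE reactions such as CSF1R ran at apparent Km ATP, while the Adapta CAMK1 assay used ATP listed as 10. Values are given as percent.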

T1 sequence (P42684 whole entry): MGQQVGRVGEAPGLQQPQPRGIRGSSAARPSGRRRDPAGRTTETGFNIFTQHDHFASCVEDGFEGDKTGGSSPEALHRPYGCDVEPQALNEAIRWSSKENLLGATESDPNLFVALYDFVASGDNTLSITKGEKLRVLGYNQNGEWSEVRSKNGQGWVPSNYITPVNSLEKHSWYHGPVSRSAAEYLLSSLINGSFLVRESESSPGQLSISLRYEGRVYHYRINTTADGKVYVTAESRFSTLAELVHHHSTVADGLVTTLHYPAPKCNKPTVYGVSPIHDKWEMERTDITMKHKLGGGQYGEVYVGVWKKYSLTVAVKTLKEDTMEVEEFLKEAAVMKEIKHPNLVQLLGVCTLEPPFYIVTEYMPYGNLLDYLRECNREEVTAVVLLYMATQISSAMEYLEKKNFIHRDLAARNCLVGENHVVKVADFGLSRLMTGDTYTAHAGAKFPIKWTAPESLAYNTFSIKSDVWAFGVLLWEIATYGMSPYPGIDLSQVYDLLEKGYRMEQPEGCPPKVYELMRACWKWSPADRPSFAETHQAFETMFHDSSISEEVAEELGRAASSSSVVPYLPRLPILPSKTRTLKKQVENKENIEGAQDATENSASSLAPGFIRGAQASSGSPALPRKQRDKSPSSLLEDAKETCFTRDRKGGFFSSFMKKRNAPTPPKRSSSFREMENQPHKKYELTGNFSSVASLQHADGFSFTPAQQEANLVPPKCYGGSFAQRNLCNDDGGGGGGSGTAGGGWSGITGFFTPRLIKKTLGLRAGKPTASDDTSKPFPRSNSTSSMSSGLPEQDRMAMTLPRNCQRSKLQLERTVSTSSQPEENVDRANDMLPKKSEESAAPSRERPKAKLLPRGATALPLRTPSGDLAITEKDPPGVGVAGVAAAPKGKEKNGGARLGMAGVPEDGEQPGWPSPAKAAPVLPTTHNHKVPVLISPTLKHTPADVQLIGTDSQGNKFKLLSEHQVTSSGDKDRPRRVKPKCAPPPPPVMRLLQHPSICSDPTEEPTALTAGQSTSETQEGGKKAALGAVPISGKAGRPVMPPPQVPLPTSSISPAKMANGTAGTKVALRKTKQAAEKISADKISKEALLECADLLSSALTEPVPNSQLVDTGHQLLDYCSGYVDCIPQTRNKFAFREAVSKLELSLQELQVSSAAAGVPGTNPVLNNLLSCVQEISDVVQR

Turning to `CN(C(=O)CN1CCOCC1)c1ccc2sc3c(-c4cccc5c(=O)cc(N6CC7CCC(C6)O7)oc45)cccc3c2c1` [NU5455], the inhibition at 1 µM is -10.3%.
